The record followed here is US20260022142A1, “MACROCYCLIC IMMUNOMODULATORS” (Bristol-Myers Squibb Company, priority 2022, published 2026).

Numbered stars: 1 amine (or outer) side, 2 acyl side, 3 side chain; on linkers, the order of the positions; unused ones are H or OH. Bridge positions count the residues as written; N and C are the ends. Square brackets hold non-standard residues; d marks the D form. Peptide text beside a SMILES is read from it. * marks the point of attachment. Phe(3-CF3) = N[C@@H](Cc1cccc(C(F)(F)F)c1)C(=O)O; Phe(4-COOH) = N[C@@H](Cc1ccc(C(=O)O)cc1)C(=O)O; Bip = N[C@@H](Cc1ccc(-c2ccccc2)cc1)C(=O)O; NH(CH2)14COOH = O=C(O)CCCCCCCCCCCCCCN*; γGlu = O=C(O)[C@H](CCC(=O)[*:2])N[*:1]; βAsp = O=C(O)[C@H](CC(=O)[*:2])N[*:1]; NH(CH2)12COOH = O=C(O)CCCCCCCCCCCCN*; Val(3-OH) = CC(C)(O)[C@H](N)C(=O)O; Cha = N[C@@H](CC1CCCCC1)C(=O)O; Carboxymethyl = O=C(O)C*; Orn = NCCC[C@H](N)C(=O)O; Dab = NCC[C@H](N)C(=O)O; Nva = CCC[C@H](N)C(=O)O; Abu = CC[C@H](N)C(=O)O; AEEA = NCCOCCOCC(=O)O

For the experiment, the target named is T1, PD-1/PD-L1 interaction (PE-labeled human PD-L1-Ig binding to Jurkat cell line over-expressing human PD-1) (Homo sapiens, UniProt Q15116).
T1 construct: expressed in transfected cells; host or cells: Jurkat
T1 sequence (Q15116 25-288): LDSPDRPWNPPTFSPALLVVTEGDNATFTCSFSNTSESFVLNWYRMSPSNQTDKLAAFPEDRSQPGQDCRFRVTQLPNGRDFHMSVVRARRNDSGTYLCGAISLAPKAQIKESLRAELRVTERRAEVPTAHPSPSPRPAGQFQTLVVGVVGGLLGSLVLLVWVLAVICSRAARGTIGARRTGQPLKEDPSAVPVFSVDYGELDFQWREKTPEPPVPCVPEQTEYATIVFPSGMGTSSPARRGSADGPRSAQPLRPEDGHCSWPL
The experiment is described as follows: Jurkat-PD-1 Cell Binding High-Content Screening Assay (CBA). Format: cell-based. The conditions noted are these: Jurkat cell line over-expressing human PD-1; PE-labeled PD-L1-Ig 20 nM final; read-out: Jurkat hPD1-PDL1 IC50. The method in brief: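 First, compound is added to PD-1-expressing Jurkat cells in serum-containing DMEM and left 2 h at 37° C. Next, PE-conjugated PD-L1-Ig is introduced at 20 nM final concentration for 1 hour. Finally, cells are fixed in 4% paraformaldehyde with Hoechst 33342, washed and imaged.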
The IC50 is the point on the concentration scale where inhibition reaches its midpoint. As for `CC[C@@H]1NC(=O)CSC[C@@H](C(=O)N[C@@H](CCN)C(=O)NCCCCCCCCCCCCCCC(=O)O)NC(=O)[C@H](Cc2c[nH]cn2)NC(=O)[C@H](C(C)(C)O)NC(=O)[C@H](CC2CCCCC2)NC(=O)[C@H](CCN)NC(=O)[C@@H](CC(C)C)NC(=O)[C@H](CCCN)NC(=O)[C@H](Cc2ccc(C(=O)O)cc2)NC(=O)[C@H](Cc2ccc(-c3ccccc3)cc2)NC(=O)[C@H](Cc2ccc(C(=O)O)cc2)NC(=O)[C@H](Cc2cccc(C(F)(F)F)c2)NC(=O)[C@H](CC(=O)O)NC(=O)[C@H](Cc2ccc(OCC(=O)O)cc2)NC1=O` [Compound 2929] ({CH2CO}-[Abu]Y(Carboxymethyl)D[Phe(3-CF3)][Phe(4-COOH)][Bip][Phe(4-COOH)][Orn][dL][Dab][Cha][Val(3-OH)]HC[Dab]-{NH(CH2)14COOH}; thioether N-14), the IC50 came out at 369 nM. With `CCC[C@@H]1NC(=O)CSC[C@@H](C(=O)N[C@@H](CCN)C(=O)NCCOCCOCC(=O)N[C@@H](CC(=O)NCCOCCOCC(=O)NCCCCCCCCCCCCC(=O)O)C(=O)O)NC(=O)[C@H](CO)NC(=O)[C@H](C(C)(C)O)NC(=O)[C@H](CC2CCCCC2)NC(=O)[C@H](CCN)NC(=O)[C@@H](CC(C)C)NC(=O)[C@H](CCCN)NC(=O)[C@H](Cc2ccc(C(=O)O)cc2)NC(=O)[C@H](Cc2ccc(-c3ccccc3)cc2)NC(=O)[C@H](Cc2ccc(C(=O)O)cc2)NC(=O)[C@H](Cc2cccc(C(F)(F)F)c2)NC(=O)[C@H](CC(=O)O)NC(=O)[C@H](Cc2ccc(OCC(=O)O)cc2)NC1=O` [Compound 2931] ({CH2CO}-[Nva]Y(Carboxymethyl)D[Phe(3-CF3)][Phe(4-COOH)][Bip][Phe(4-COOH)][Orn][dL][Dab][Cha][Val(3-OH)]SC[Dab][AEEA][βAsp][AEEA]-{NH(CH2)12COOH}; thioether N-14), the IC50 is 26.3 nM. In the case of `CC[C@@H]1NC(=O)CSC[C@@H](C(=O)N[C@@H](CCN)C(=O)NCCOCCOCC(=O)N[C@@H](CCC(=O)NCCOCCOCC(=O)NCCCCCCCCCCCCC(=O)O)C(=O)O)NC(=O)[C@H](CO)NC(=O)[C@H](C(C)(C)O)NC(=O)[C@H](CC2CCCCC2)NC(=O)[C@H](CCN)NC(=O)[C@@H](CC(C)C)NC(=O)[C@H](CCCN)NC(=O)[C@H](Cc2ccc(C(=O)O)cc2)NC(=O)[C@H](Cc2ccc(-c3ccccc3)cc2)NC(=O)[C@H](Cc2ccc(C(=O)O)cc2)NC(=O)[C@H](Cc2cccc(C(F)(F)F)c2)NC(=O)[C@H](CC(=O)O)NC(=O)[C@H](Cc2ccc(OCC(=O)O)cc2)NC1=O` [Compound 2932] ({CH2CO}-[Abu]Y(Carboxymethyl)D[Phe(3-CF3)][Phe(4-COOH)][Bip][Phe(4-COOH)][Orn][dL][Dab][Cha][Val(3-OH)]SC[Dab][AEEA][γGlu][AEEA]-{NH(CH2)12COOH}; thioether N-14), the IC50 was 33 nM.

Take `CC[C@@H]1NC(=O)CSC[C@@H](C(=O)N[C@@H](CCN)C(=O)NCCOCCOCC(=O)N[C@@H](CC(=O)NCCOCCOCC(=O)NCCCCCCCCCCCCC(=O)O)C(=O)O)NC(=O)[C@H](CO)NC(=O)[C@H](C(C)(C)O)NC(=O)[C@H](CC2CCCCC2)NC(=O)[C@H](CCN)NC(=O)[C@@H](CC(C)C)NC(=O)[C@H](CCCN)NC(=O)[C@H](Cc2ccc(C(=O)O)cc2)NC(=O)[C@H](Cc2ccc(-c3ccccc3)cc2)NC(=O)[C@H](Cc2ccc(C(=O)O)cc2)NC(=O)[C@H](Cc2cccc(C(F)(F)F)c2)NC(=O)[C@H](CC(=O)O)NC(=O)[C@H](Cc2ccc(OCC(=O)O)cc2)NC1=O` [Compound 2933] ({CH2CO}-[Abu]Y(Carboxymethyl)D[Phe(3-CF3)][Phe(4-COOH)][Bip][Phe(4-COOH)][Orn][dL][Dab][Cha][Val(3-OH)]SC[Dab][AEEA][βAsp][AEEA]-{NH(CH2)12COOH}; thioether N-14): the IC50 is 26.5 nM.
